Laboratory results published in patent publication US20110046056A1, “APOA-1 PEPTIDE MIMETICS” (priority 2007, published 2011).
*1 amine or outer side, *2 acyl side, *3 side chain or, on linkers, in order; H or OH if unused. Where a SMILES comes first, the peptide text is derived from it. Bridges are numbered along the chain shown (N, C = ends). Where no end group is shown, it is not given here. [ ]: non-standard residue; d: D form. dNle(6-ylidene) = O=C([C@@H](CCCC=[*:3])N[*:1])[*:2]; X2 = O=C([C@@H](CCCCC=[*:3])N[*:1])[*:2]; X3 = O=C([C@H](CCCCCC=[*:3])N[*:1])[*:2]; Ala(5-hexenyl) = C=CCCCCC[C@H](N)C(=O)O; dNle(6-vinyl) = C=CCCCC[C@@H](N)C(=O)O; Gla = N[C@@H](CC(C(=O)O)C(=O)O)C(=O)O; R5 = C=CCCC[C@@](C)(N)C(=O)O; 12H3 = not defined here

Legend:
[1] = Lipid (liposome) solubilization, turbidimetric method; assay type: biochemical; details: for IC50: read-out: IC50 in the liposome solubilization assay; for LIPID SOLUBILIZATION IC50: Measured at 2 h
Experimental: As noted above, the other important parameter was phospholipid solubilization. A turbidimetric method is used to determine the solubilization capacity of peptides of the present invention. First, a three-fold serial titration of the peptide is prepared in a polypropylene v-shaped 96-well plate. The eight-point titration is done in phosphate-buffered saline (PBS, pH 7.5) or DMSO from a starting concentration that allows for addition to an optically-clear bottomed assay plate in <100 μl aliquots to yield a starting concentration of 500 μM in 200 μl final well volume. PBS is then added to each well to bring the total volume to 100 μl. Any bubbles in the wells must be dispersed to avoid erroneous results. Next, from a turbid but homogeneous emulsion of dimyristoyl phosphatidylcholine at 0.5 mg/ml in PBS, 100 μl is added to each well in the assay plate, the plate is inserted into the NEPHELOSTAR (BMG LABTECH INSTRUMENTS), and readings are taken immediately and every 15 minutes over 2 hours.
A true 0-point value is calculated by averaging the readings of the wells with phospholipid but no peptide. For each peptide concentration, a percent decrease in turbidity is calculated by subtracting the 0-point value from the corresponding 30 and 120 minute readings and dividing by that 0-point value. Finally the EC50 values for both time points are determined using PRISM software (Table 2).

[2] = target: T1, ABCA1 cholesterol transporter protein (Mus musculus, UniProt P41233); assay: ABCA1-dependent cholesterol efflux from RAW mouse macrophage cells (in vitro RCT assay); assay type: cell-based; details: for EC50: read-out: EC50 in the cholesterol efflux assay (RCT in vitro assay)
T1 construct: endogenous in cells
Summary of the method: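 RAW macrophages labelled with ^3H-cholesterol (5 μCi/ml) 24 h, equilibrated overnight serum-free, then given eight-point peptide titrations 24 h with or without 150 μM CPT-cAMP. Percent efflux = medium counts/(medium + lysate); plain-medium efflux subtracted from cAMP value gives ABCA1-dependent efflux, fitted for EC50.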

[3] = target: T2, ATP-binding cassette transporter A1 (ABCA1) (mouse, UniProt P41233 1-2261); assay: cell-based or functional assay
[4] = target: T2, ATP-binding cassette transporter A1 …; assay: cell-based or functional assay; remark: listed apart in the source

T2 sequence (P41233 whole entry): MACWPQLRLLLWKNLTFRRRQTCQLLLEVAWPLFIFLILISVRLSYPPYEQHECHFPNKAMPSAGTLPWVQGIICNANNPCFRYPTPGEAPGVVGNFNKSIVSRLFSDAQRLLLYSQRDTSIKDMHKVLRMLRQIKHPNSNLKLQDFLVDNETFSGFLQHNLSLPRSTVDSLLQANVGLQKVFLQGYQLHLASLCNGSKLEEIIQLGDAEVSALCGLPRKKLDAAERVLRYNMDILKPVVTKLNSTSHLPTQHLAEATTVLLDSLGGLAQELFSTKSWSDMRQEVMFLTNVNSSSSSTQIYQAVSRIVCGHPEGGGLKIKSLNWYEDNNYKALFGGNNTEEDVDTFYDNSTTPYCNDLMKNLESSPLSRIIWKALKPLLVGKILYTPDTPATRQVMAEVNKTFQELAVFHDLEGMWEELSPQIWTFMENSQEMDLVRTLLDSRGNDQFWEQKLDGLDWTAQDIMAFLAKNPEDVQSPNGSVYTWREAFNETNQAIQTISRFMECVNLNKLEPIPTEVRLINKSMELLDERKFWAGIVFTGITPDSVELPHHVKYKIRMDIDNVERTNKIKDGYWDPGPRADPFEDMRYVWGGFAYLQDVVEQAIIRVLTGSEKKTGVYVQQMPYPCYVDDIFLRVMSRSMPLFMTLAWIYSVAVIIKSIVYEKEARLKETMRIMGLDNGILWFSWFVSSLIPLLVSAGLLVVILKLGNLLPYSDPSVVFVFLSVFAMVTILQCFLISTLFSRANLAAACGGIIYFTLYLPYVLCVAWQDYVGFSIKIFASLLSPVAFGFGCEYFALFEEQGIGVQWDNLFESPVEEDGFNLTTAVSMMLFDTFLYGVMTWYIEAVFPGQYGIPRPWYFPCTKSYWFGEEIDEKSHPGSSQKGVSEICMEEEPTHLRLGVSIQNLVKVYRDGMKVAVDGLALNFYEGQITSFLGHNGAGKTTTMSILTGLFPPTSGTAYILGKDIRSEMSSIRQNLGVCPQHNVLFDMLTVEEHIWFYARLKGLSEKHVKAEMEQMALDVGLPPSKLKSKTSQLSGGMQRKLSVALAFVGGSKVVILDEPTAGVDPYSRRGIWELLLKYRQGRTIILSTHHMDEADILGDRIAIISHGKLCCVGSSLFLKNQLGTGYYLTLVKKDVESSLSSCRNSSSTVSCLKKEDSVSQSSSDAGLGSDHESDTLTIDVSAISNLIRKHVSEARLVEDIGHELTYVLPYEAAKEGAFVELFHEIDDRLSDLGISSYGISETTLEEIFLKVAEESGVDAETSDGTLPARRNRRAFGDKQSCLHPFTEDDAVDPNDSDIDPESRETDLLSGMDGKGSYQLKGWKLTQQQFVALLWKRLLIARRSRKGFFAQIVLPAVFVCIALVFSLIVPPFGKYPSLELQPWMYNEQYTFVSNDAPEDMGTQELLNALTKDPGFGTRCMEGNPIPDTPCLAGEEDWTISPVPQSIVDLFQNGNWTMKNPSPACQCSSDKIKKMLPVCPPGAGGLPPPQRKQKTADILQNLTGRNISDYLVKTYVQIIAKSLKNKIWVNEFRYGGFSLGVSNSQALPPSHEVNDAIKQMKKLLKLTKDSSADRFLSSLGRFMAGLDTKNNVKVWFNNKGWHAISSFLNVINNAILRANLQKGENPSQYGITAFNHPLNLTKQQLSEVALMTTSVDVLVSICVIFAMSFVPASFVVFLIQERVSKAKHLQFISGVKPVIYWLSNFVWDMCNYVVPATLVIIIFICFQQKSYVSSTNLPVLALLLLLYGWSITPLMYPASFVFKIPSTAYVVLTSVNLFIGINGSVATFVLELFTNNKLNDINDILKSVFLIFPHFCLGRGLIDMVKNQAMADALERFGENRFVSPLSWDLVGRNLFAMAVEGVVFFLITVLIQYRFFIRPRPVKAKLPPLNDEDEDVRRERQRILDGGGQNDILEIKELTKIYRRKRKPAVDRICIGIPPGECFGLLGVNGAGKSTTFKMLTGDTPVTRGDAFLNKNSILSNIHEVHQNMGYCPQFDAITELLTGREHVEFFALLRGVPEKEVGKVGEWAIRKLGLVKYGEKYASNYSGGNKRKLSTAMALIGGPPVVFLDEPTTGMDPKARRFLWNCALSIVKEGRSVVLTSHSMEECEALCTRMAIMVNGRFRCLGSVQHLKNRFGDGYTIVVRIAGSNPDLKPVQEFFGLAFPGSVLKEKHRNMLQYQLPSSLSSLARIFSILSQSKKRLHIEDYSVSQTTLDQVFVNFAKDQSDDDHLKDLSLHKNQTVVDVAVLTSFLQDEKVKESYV
T1 sequence (P41233 whole entry): as above

**Q.** For `C=CCCCCC[C@H](NC(=O)[C@H](CCC(=O)O)NC(=O)[C@H](CC(=O)O)NC(=O)[C@H](CC(C)C)NC(=O)[C@@H](NC(=O)[C@@H]1CCCN1C(C)=O)C(C)C)C(=O)N[C@@H](CCCNC(=N)N)C(=O)N[C@@H](CCC(=O)O)C(=O)N[C@@H](CCCCN)C(=O)N[C@@H](CC(C)C)C(=O)N[C@@H](CC(N)=O)C(=O)N[C@@H](CCC(=O)O)C(=O)N[C@H](CCCCC=C)C(=O)N[C@@H](CC(C)C)C(=O)N[C@@H](CCC(=O)O)C(=O)N[C@@H](C)C(=O)N[C@@H](CC(C)C)C(=O)N[C@@H](CCCCN)C(=O)N[C@@H](CCC(N)=O)C(=O)N[C@@H](CCCCN)C(=O)N[C@@H](CC(C)C)C(=O)N[C@@H](CCCCN)C(N)=O` [SEQ ID NO 10, PVLDES7HREKLNER6HLEALKQKLK] (Ac-PVLDE[Ala(5-hexenyl)]REKLNE[dNle(6-vinyl)]LEALKQKLK-NH2; C-terminus assumed), which IC50 [1] is on record?
**A.** 44000 nM

**Q.** What about the EC50 [2] of the same molecule?
**A.** 1200 nM

**Q.** With `CC(=O)N1CCC[C@H]1C(=O)N[C@H](C(=O)N[C@@H](CC(C)C)C(=O)N[C@@H](CC(=O)O)C(=O)N[C@@H](CCC(=O)O)C(=O)N[C@@H](Cc1ccccc1)C(=O)N[C@@H](CCCNC(=N)N)C(=O)N[C@@H](CCC(=O)O)C(=O)N[C@@H]1CCCC=CCCC[C@H](C(=O)N[C@@H](CC(C)C)C(=O)N[C@@H](CCC(=O)O)C(=O)N[C@@H](C)C(=O)N[C@@H](CC(C)C)C(=O)N[C@@H](CCCCN)C(=O)N[C@@H](CCC(N)=O)C(=O)N[C@@H](CCCCN)C(=O)N[C@@H](CC(C)C)C(=O)N[C@@H](CCCCN)C(N)=O)NC(=O)[C@H](CCC(=O)O)NC(=O)[C@H](CC(N)=O)NC(=O)[C@H](CC(C)C)NC1=O)C(C)C` [SEQ ID NO 12, PVLDEFRER5HLNER5HLEALKQKLK (CYCLO R5H9-R5H13)] (Ac-PVLDEFRE[dNle(6-ylidene)]LNE[dNle(6-ylidene)]LEALKQKLK-NH2; staple 9-13; C-terminus assumed) as the molecule, how does the IC50 [1] read?
**A.** 60000 nM

**Q.** And the EC50 [2]?
**A.** 10000 nM

**Q.** For `CC(=O)N1CCC[C@H]1C(=O)N[C@H](C(=O)N[C@@H](CC(C)C)C(=O)N[C@@H](CC(=O)O)C(=O)N[C@@H](CCC(=O)O)C(=O)N[C@@H]1CCCCC=CCCCCC[C@@H](C(=O)N[C@@H](CC(C)C)C(=O)N[C@@H](CCC(=O)O)C(=O)N[C@@H](C)C(=O)N[C@@H](CC(C)C)C(=O)N[C@@H](CCCCN)C(=O)N[C@@H](CCC(N)=O)C(=O)N[C@@H](CCCCN)C(=O)N[C@@H](CC(C)C)C(=O)N[C@@H](CCCCN)C(N)=O)NC(=O)[C@H](CCC(=O)O)NC(=O)[C@H](CC(N)=O)NC(=O)[C@H](CC(C)C)NC(=O)[C@H](CCCCN)NC(=O)[C@H](CCC(=O)O)NC(=O)[C@H](CCCNC(=N)N)NC1=O)C(C)C` [SEQ ID NO 14, PVLDER6HREKLNES7HLEALKQKLK (CYCLO R6H6-S7H13)] (Ac-PVLDE[X2]REKLNE[X3]LEALKQKLK-NH2; staple 6-13; C-terminus assumed), which IC50 [1] is on record?
**A.** 43000 nM

**Q.** What about the EC50 [2] of the same molecule?
**A.** 2000 nM

**Q.** Which IC50 [1] does the source give for `C=CCCCC[C@@H](NC(=O)[C@H](CCC(=O)O)NC(=O)[C@H](CC(N)=O)NC(=O)[C@H](CC(C)C)NC(=O)[C@H](CCCCN)NC(=O)[C@H](CCC(=O)O)NC(=O)[C@H](CCCNC(=N)N)NC(=O)[C@H](Cc1ccccc1)NC(=O)[C@H](CCC(=O)O)NC(=O)[C@H](CC(=O)O)NC(=O)[C@H](CC(C)C)NC(=O)[C@@H](NC(=O)[C@@H]1CCCN1C(C)=O)C(C)C)C(=O)N[C@@H](CC(C)C)C(=O)N[C@@H](CCC(=O)O)C(=O)N[C@@H](C)C(=O)N[C@@H](CC(C)C)C(=O)N[C@@H](CCCCN)C(=O)N[C@@H](CCC(N)=O)C(=O)N[C@@H](CCCCN)C(=O)N[C@@H](CC(C)C)C(=O)N[C@@H](CCCCN)C(N)=O` [SEQ ID NO 18, PVLDEFREKLNER6HLEALKQKLK] (Ac-PVLDEFREKLNE[dNle(6-vinyl)]LEALKQKLK-NH2; C-terminus assumed) here?
**A.** 32000 nM

**Q.** For `CC(=O)N1CCC[C@H]1C(=O)N[C@H](C(=O)N[C@@H](CC(C)C)C(=O)N[C@@H](CC(=O)O)C(=O)N[C@@H](CCC(=O)O)C(=O)N[C@@H](Cc1ccccc1)C(=O)N[C@@H](CCCNC(=N)N)C(=O)N[C@@H](CC(C(=O)O)C(=O)O)C(=O)N[C@@H](CCCCN)C(=O)N[C@@H](CC(C)C)C(=O)N[C@@H](CC(N)=O)C(=O)N[C@@H](CCC(=O)O)C(=O)N[C@@H](C)C(=O)N[C@@H](CC(C)C)C(=O)N[C@@H](CCC(=O)O)C(=O)N[C@@H](C)C(=O)N[C@@H](CC(C)C)C(=O)N[C@@H](CCCCN)C(=O)N[C@@H](CCC(N)=O)C(=O)N[C@@H](CCCCN)C(=O)N[C@@H](CC(C)C)C(=O)N[C@@H](CCCCN)C(N)=O)C(C)C` [compound 3] (Ac-PVLDEFR[Gla]KLNEALEALKQKLK-NH2; C-terminus assumed), which “LIPID SOLUBILIZATION IC50” value [1] is on record?
**A.** NOT ACTIVE

**Q.** With “Ac-PVLDEFREKLNEELEALKQKLK-NH2 [SEQ ID NO 1, reference compound]” as the molecule, how does the “lipid binding / ability to clear liposome turbidity, in words” value [1] read?
**A.** inactive

**Q.** And the “activity in the cholesterol efflux / in vitro RCT assay, in words” value [2]?
**A.** inactive

**Q.** Which results are given for PVLDEFREKLNEELEALKQKLK [compound 1]?
**A.** LIPID SOLUBILIZATION IC50 [1]: NOT ACTIVE; ABCA1-DEPENDENT CHOLESTEROL EFFLUX EC50 ([2]; RAW cells, cAMP-stimulated minus plain medium efflux): NOT ACTIVE

**Q.** Which results are given for “PVLDEFRER5MELNER5MELEALKQKLK (Ac-PVLDEFRE[R5]LNE[R5]LEALKQKLK; not fully specified (C-terminus); bridges not given here) [SEQ ID NO 16]”?
**A.** lipid binding / ability to clear liposome turbidity, in words [1]: good lipid binding; activity in the cholesterol efflux / in vitro RCT assay, in words [2]: very low to no activity

**Q.** What does the source list for “PVLDEFRES5HLNES5HLEALKQKLK (Ac-PVLDEFRE[S5H]LNE[S5H]LEALKQKLK; not fully specified (C-terminus)) [SEQ ID NO 15]”?
**A.** lipid binding / ability to clear liposome turbidity, in words [1]: good lipid binding; activity in the cholesterol efflux / in vitro RCT assay, in words [2]: very low to no activity

**Q.** With Ac-PVLDEFREKLNE[Ala(5-hexenyl)]LEALKQKLK [CONS[S7H^13]] as the molecule, how does the “ABCA1-dependent cholesterol efflux EC50” value [3] read?
**A.** 2000 nM

**Q.** And the “EC50 in the RCT in vitro assay” value [4]?
**A.** 1600 nM

**Q.** What about the “EC50 in the cholesterol efflux assay” value [4] of the same molecule?
**A.** 2800 nM

**Q.** What does the source list for Ac-PVLDE[Ala(5-hexenyl)]REKLNE[dNle(6-vinyl)]LEALKQKLK [S7H [F6-E13]R6H OPEN]?
**A.** ABCA1-dependent cholesterol efflux EC50 [3]: 1300 nM; EC50 in the cholesterol efflux assay [4]: 1200 nM

B1: CONS[(RS)12H3^13] (peptide)
peptide: Ac-PVLDEFREKLNE[12H3]LEALKQKLK
modifications: not fully specified (C-terminus); printed as PVLDEFREKLNE-(RS)12H3-LEALKQKLK; reading uncertain
**Q.** Which “EC50 in the RCT in vitro assay” value [4] does the source give for B1 here?
**A.** 200 to 400 nM
